This note sets out measurements from patent US20050080113A1, “Medicinal compositions” (priority 2001, published 2005).

Each structure is given as a SMILES string.

Take `CCC(=O)Nc1cc(-c2sc(C3CCN(C)CC3)nc2-c2cccc(Cl)c2)ccn1.Cl.Cl`: the melting point (commonly the temperature, or range, at which the solid turns liquid) lay within 350 to 351 °C.

For `Cc1cccc(-c2nc(NC(=O)NCCCl)sc2-c2ccnc(C)c2)c1`, the melting point lay within 149 to 151 °C. Turning to `CC(=O)Nc1cc(-c2sc(C3CCNCC3)nc2-c2cccc(Cl)c2)ccn1.Cl.Cl`, the melting point fell in the range of 193 to 195 °C. Compound `CCC(=O)Nc1cc(-c2sc(C3CCNCC3)nc2-c2cccc(Cl)c2)ccn1.Cl.Cl` yielded a melting point of 202 to 203 °C.

`CCc1nc(-c2cccc(Cl)c2)c(-c2ccnc(N[C@@H](C)c3ccccc3)c2)s1.Cl`: the melting point was in the range of 165 to 166 °C. In the case of `COc1ccc(-c2nc(N)sc2-c2ccncc2)cc1` [13-14, [4-(4-methoxyphenyl)-5-(4-pyridyl)-1,3-thiazol-2-yl]amine], the melting point lay within 282 to 284 °C. Consider `Nc1nc(-c2ccccc2)c(-c2ccncc2)s1` [13-15, [4-phenyl-5-(4-pyridyl)-1,3-thiazol-2-yl]amine], for which the melting point lay in the range of 248 to 250 °C. In turn, `Cc1cc(C)cc(-c2nc(N)sc2-c2ccncc2)c1` [23-133, [4 (3,5 dimethylphenyl)-5 (4 pyridyl)-1,3 thiazol-2 yl]amine] came in with a melting point of 242 to 244 °C.

In the case of `CC(=O)Nc1nc(-c2ccc(C(C)(C)C)cc2)c(-c2ccncc2)s1` [23-137, N-[4 [4 (1,1 dimethylethyl)phenyl]-5 (4 pyridyl)-1,3 thiazol-2 yl]acetamide], the melting point lay in the range of 280 to 281 °C.

In the case of `CC(C)(C)c1ccc(-c2nc(N)sc2-c2ccncc2)cc1` [23-143, [4 [4 (1,1 dimethylethyl)phenyl]-5 (4 pyridyl)-1,3 thiazol-2-yl]amine], the melting point is 254 to 257 °C.

For `CC(C)(C)c1ccc(-c2nc(NC(=O)c3ccccc3)sc2-c2ccncc2)cc1` [23-164, N-[4 [4 (1,1 dimethylethyl)phenyl]-5 (4 pyridyl)-1,3 thiazol-2 yl]benzamide], the melting point is 292 to 294 °C. `CC(C)(C)c1ccc(-c2nc(NC(=O)c3cccnc3)sc2-c2ccncc2)cc1` [23-165, N-[4 [4 (1,1 dimethylethyl)phenyl]-5 (4 pyridyl)-1,3 thiazol-2 yl]nicotinamide] showed a melting point of 326 to 328 °C. With `CC(C)(C)c1ccc(-c2nc(NC(=O)C3CCCC3)sc2-c2ccncc2)cc1` [23-168, N-[4 [4 (1,1 dimethylethyl)phenyl]-5 (4 pyridyl)-1,3 thiazol-2 yl]cyclopentanecarboxamide] the figure was 309 to 311 °C; with `CCC(=O)Nc1nc(-c2cc(C)cc(C)c2)c(-c2ccncc2)s1` [23-194, N-[4 (3,5 dimethylphenyl)-5 (4 pyridyl)-1,3 thiazol-2-yl]propionamide], 291 to 293 °C. Compound `Cc1cc(C)cc(-c2nc(NC(=O)C(C)C)sc2-c2ccncc2)c1` [23-195, N-[4 (3,5 dimethylphenyl)-5 (4 pyridyl)-1,3 thiazol-2 yl]-2-methylpropionamide] yielded a melting point of 270 to 272 °C. To `Cc1cc(C)cc(-c2nc(NC(=O)Cc3ccccc3)sc2-c2ccncc2)c1` [23-196, N-[4 (3,5 dimethylphenyl)-5 (4 pyridyl)-1,3 thiazol-2 yl]-2-phenylacetamide] belongs 226 to 229 °C.

Compound `Cc1cc(C)cc(-c2nc(NC(=O)c3ccccc3)sc2-c2ccncc2)c1` [23-197, N-[4 (3,5 dimethylphenyl)-5 (4 pyridyl)-1,3 thiazol-2-yl]benzamide] gave a melting point of 285 to 286 °C. To `Cc1cc(C)cc(-c2nc(NC(=O)C3CCCC3)sc2-c2ccncc2)c1` [23-198, N-[4 (3,5 dimethylphenyl)-5 (4 pyridyl)-1,3 thiazol-2-yl]cyclopentanecarboxamide] belongs 275 to 278 °C; to `Cc1cc(C)cc(-c2nc(NC(=O)c3cccnc3)sc2-c2ccncc2)c1` [23-199, N-[4 (3,5 dimethylphenyl)-5 (4 pyridyl)-1,3 thiazol-2-yl]nicotinamide], 267 to 270 °C.
